Measurements from patent publication US20230293407A1, “Compositions Comprising (Bio)-Alkanediols with Antimicrobials for Product Protection” (Symrise AG, priority 2020, published 2023).

What was measured:
Assay in all cases: preservation efficacy test (PET), European Pharmacopoeia 5.1.3
Format in all cases: cell-based
Escherichia coli = conditions: for number of microorganisms, 2 days / number of microorganisms, 7 days / number of microorganisms, 14 days / number of microorganisms, 28 days: PET, Escherichia coli (EC)
Pseudomonas aeruginosa = conditions: PA, use concentration in label
Candida albicans = conditions: for number of microorganisms, 2 days / number of microorganisms, 7 days / number of microorganisms, 14 days / number of microorganisms, 28 days: PET, Candida albicans (CA)
Staphylococcus aureus = conditions: for number of microorganisms, 2 days / number of microorganisms, 7 days / number of microorganisms, 14 days / number of microorganisms, 28 days: PET, Staphylococcus aureus (SA)
Aspergillus brasiliensis = conditions: for number of microorganisms, 2 days / number of microorganisms, 7 days / number of microorganisms, 14 days / number of microorganisms, 28 days: PET, Aspergillus brasiliensis (AB)

## CCCCCCCC(=O)NO [0.4% caprylhydroxamic acid]
Escherichia coli; EC, 2 days after inoculation, use concentration in label
  count at 2 days: 6.900
Escherichia coli; EC, 7 days after inoculation, use concentration in label
  count at 7 days: 1
Escherichia coli; EC, 14 days after inoculation, use concentration in label
  count at 14 days: 1
Escherichia coli; EC, 28 days after inoculation, use concentration in label
  count at 28 days: 1
Pseudomonas aeruginosa; 2 days after inoculation
  count at 2 days: 1
Pseudomonas aeruginosa; 7 days after inoculation
  count at 7 days: 1
Pseudomonas aeruginosa; 14 days after inoculation
  count at 14 days: 1
Pseudomonas aeruginosa; 28 days after inoculation
  count at 28 days: 1
Candida albicans; CA, 2 days after inoculation, use concentration in label
  count at 2 days: 210.000
Candida albicans; CA, 7 days after inoculation, use concentration in label
  count at 7 days: 1
Candida albicans; CA, 14 days after inoculation, use concentration in label
  count at 14 days: 1
Candida albicans; CA, 28 days after inoculation, use concentration in label
  count at 28 days: 1
Staphylococcus aureus; SA, 2 days after inoculation, use concentration in label
  count at 2 days: 1
Staphylococcus aureus; SA, 7 days after inoculation, use concentration in label
  count at 7 days: 1
Staphylococcus aureus; SA, 14 days after inoculation, use concentration in label
  count at 14 days: 1
Staphylococcus aureus; SA, 28 days after inoculation, use concentration in label
  count at 28 days: 1
Aspergillus brasiliensis; AB, 2 days after inoculation, use concentration in label
  count at 2 days: 810.000
Aspergillus brasiliensis; AB, 7 days after inoculation, use concentration in label
  count at 7 days: 68.000
Aspergillus brasiliensis; AB, 14 days after inoculation, use concentration in label
  count at 14 days: 180
Aspergillus brasiliensis; AB, 28 days after inoculation, use concentration in label
  count at 28 days: 1

## CCCCCCCC(=O)NO [caprylhydroxamic acid, reference compound]
Escherichia coli; 2 days after inoculation
  number of microorganisms, 2 days: 6.900
Escherichia coli; 7 days after inoculation
  number of microorganisms, 7 days: 1
Escherichia coli; 14 days after inoculation
  number of microorganisms, 14 days: 1
Escherichia coli; 28 days after inoculation
  number of microorganisms, 28 days: 1
Candida albicans; 2 days after inoculation
  number of microorganisms, 2 days: 210.000
Candida albicans; 7 days after inoculation
  number of microorganisms, 7 days: 1
Candida albicans; 14 days after inoculation
  number of microorganisms, 14 days: 1
Candida albicans; 28 days after inoculation
  number of microorganisms, 28 days: 1
Staphylococcus aureus; 2 days after inoculation
  number of microorganisms, 2 days: 1
Staphylococcus aureus; 7 days after inoculation
  number of microorganisms, 7 days: 1
Staphylococcus aureus; 14 days after inoculation
  number of microorganisms, 14 days: 1
Staphylococcus aureus; 28 days after inoculation
  number of microorganisms, 28 days: 1
Aspergillus brasiliensis; 2 days after inoculation
  number of microorganisms, 2 days: 810.000
Aspergillus brasiliensis; 7 days after inoculation
  number of microorganisms, 7 days: 68.000
Aspergillus brasiliensis; 14 days after inoculation
  number of microorganisms, 14 days: 180
Aspergillus brasiliensis; 28 days after inoculation
  number of microorganisms, 28 days: 1

## O=c1cccccc1O [Tropolone, reference compound]
Escherichia coli; 2 days after inoculation
  number of microorganisms, 2 days: 190.000
Escherichia coli; 7 days after inoculation
  number of microorganisms, 7 days: 1.100
Escherichia coli; 14 days after inoculation
  number of microorganisms, 14 days: 1.100
Escherichia coli; 28 days after inoculation
  number of microorganisms, 28 days: 1
Candida albicans; 2 days after inoculation
  number of microorganisms, 2 days: 1
Candida albicans; 7 days after inoculation
  number of microorganisms, 7 days: 1
Candida albicans; 14 days after inoculation
  number of microorganisms, 14 days: 1
Candida albicans; 28 days after inoculation
  number of microorganisms, 28 days: 1
Staphylococcus aureus; 2 days after inoculation
  number of microorganisms, 2 days: 110.000
Staphylococcus aureus; 7 days after inoculation
  number of microorganisms, 7 days: 3.100
Staphylococcus aureus; 14 days after inoculation
  number of microorganisms, 14 days: 3.100
Staphylococcus aureus; 28 days after inoculation
  number of microorganisms, 28 days: 1
Aspergillus brasiliensis; 2 days after inoculation
  number of microorganisms, 2 days: 690.000
Aspergillus brasiliensis; 7 days after inoculation
  number of microorganisms, 7 days: 26.000
Aspergillus brasiliensis; 14 days after inoculation
  number of microorganisms, 14 days: 1.400
Aspergillus brasiliensis; 28 days after inoculation
  number of microorganisms, 28 days: 1

## CCCCCCC(O)CO (stereo not drawn) [1,2-octanediol]
Escherichia coli; 2 days after inoculation
  number of microorganisms, 2 days: 1
Escherichia coli; 7 days after inoculation
  number of microorganisms, 7 days: 1
Escherichia coli; 14 days after inoculation
  number of microorganisms, 14 days: 1
Escherichia coli; 28 days after inoculation
  number of microorganisms, 28 days: 1
Candida albicans; 2 days after inoculation
  number of microorganisms, 2 days: 70.000
Candida albicans; 7 days after inoculation
  number of microorganisms, 7 days: 9.000
Candida albicans; 14 days after inoculation
  number of microorganisms, 14 days: 1
Candida albicans; 28 days after inoculation
  number of microorganisms, 28 days: 1
Staphylococcus aureus; 2 days after inoculation
  number of microorganisms, 2 days: 1
Staphylococcus aureus; 7 days after inoculation
  number of microorganisms, 7 days: 1
Staphylococcus aureus; 14 days after inoculation
  number of microorganisms, 14 days: 1
Staphylococcus aureus; 28 days after inoculation
  number of microorganisms, 28 days: 1
Aspergillus brasiliensis; 2 days after inoculation
  number of microorganisms, 2 days: 650.000
Aspergillus brasiliensis; 7 days after inoculation
  number of microorganisms, 7 days: 360.000
Aspergillus brasiliensis; 14 days after inoculation
  number of microorganisms, 14 days: 250.000
Aspergillus brasiliensis; 28 days after inoculation
  number of microorganisms, 28 days: 67.000

## CCCCCCCCC(O)CO (stereo not drawn) [1,2-decylene glycol, reference compound]
Escherichia coli; 2 days after inoculation
  number of microorganisms, 2 days: 1
Escherichia coli; 7 days after inoculation
  number of microorganisms, 7 days: 1
Escherichia coli; 14 days after inoculation
  number of microorganisms, 14 days: 1
Escherichia coli; 28 days after inoculation
  number of microorganisms, 28 days: 1
Candida albicans; 2 days after inoculation
  number of microorganisms, 2 days: 50.000
Candida albicans; 7 days after inoculation
  number of microorganisms, 7 days: 12.000
Candida albicans; 14 days after inoculation
  number of microorganisms, 14 days: 4.100
Candida albicans; 28 days after inoculation
  number of microorganisms, 28 days: 1
Staphylococcus aureus; 2 days after inoculation
  number of microorganisms, 2 days: 1
Staphylococcus aureus; 7 days after inoculation
  number of microorganisms, 7 days: 1
Staphylococcus aureus; 14 days after inoculation
  number of microorganisms, 14 days: 1
Staphylococcus aureus; 28 days after inoculation
  number of microorganisms, 28 days: 1
Aspergillus brasiliensis; 2 days after inoculation
  number of microorganisms, 2 days: 600.000
Aspergillus brasiliensis; 7 days after inoculation
  number of microorganisms, 7 days: 520.000
Aspergillus brasiliensis; 14 days after inoculation
  number of microorganisms, 14 days: 240.000
Aspergillus brasiliensis; 28 days after inoculation
  number of microorganisms, 28 days: 190.000
